Reference: patent publication US20230036060A1, “DUAL-CONTROLLED DRUG AND PHOTOACTIVATABLE SYSTEM FOR SPATIOTEMPORAL CONTROL OF CELL THERAPY” (THE REGENTS OF THE UNIVERSITY OF CALIFORNIA, priority 2019, published 2023)

Tests used:
ERT2-mCherry = target: T1, ERT2-mCherry (Homo sapiens, UniProt P03372, G400V/L544A/M543A); experiment: Time-lapse fluorescence microscopy of 4-OHT-induced nuclear translocation of ERT2-mCherry in HEK293T cells; assay type: cell-based; details: 4-OHT 500 nM
T1 construct: expressed in transfected cells; host or cells: HEK293T
T1 sequence (P03372 311-547 G400V/M543A/L544A limits assumed): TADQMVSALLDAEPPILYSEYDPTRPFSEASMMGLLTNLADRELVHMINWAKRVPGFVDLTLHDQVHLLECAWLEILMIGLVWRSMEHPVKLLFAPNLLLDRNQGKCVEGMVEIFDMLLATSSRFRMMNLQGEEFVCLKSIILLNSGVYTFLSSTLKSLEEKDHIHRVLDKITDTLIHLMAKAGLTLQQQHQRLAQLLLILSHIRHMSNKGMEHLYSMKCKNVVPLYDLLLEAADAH
Experimental: FIG. 2E illustrates representative time-lapse fluorescence microscopy images of HEK293T cells transiently expressing ERT2-mCherry before and after the addition of nuclear-localizing 4-OHT (500 nM) (imaged every 2 min, 100× mag., scale bar=10 μm, n=6 independently measured cells).
Tamoxifen-induced nuclear import translocation dynamics in HEK293T cells were further characterized using an ERT2-mCherry fusion protein (Fig. S1F). Using time-lapse fluorescence microscopy, we discovered that nuclear translocation driven by 4-OHT (500 nM) occurred on the order of hours. ERT2-mCherry protein was only clearly nuclear-localized (with a nuclear-to-cytosolic mean fluorescence intensity ratio≥2) after approximately three hours (FIG. 2E), highlighting an effective time window for blue light stimulation to drive robust Cre-loxP recombination in ERT2-based photoactivatable construct designs.

[1] = cited from earlier work

4-hydroxytamoxifen [4-OHT]
time to significant 4-OHT-induced nuclear translocation of ERT2-mCh fusion protein (ERT2-mCherry): approximately 3 h | nuclear-to-cytosolic mean fluorescence intensity ratio of ERT2-mCherry (ERT2-mCherry; after approximately three hours): ≥ 2

CC/C(=C(\c1ccccc1)c1ccc(OCCN(C)C)cc1)c1ccccc1 [tamoxifen]
terminal elimination half-life (plasma concentrations) [1]: 5 to 7 h
